Measured values as given in US6682927B2, “Methods and apparatus for the high through-put detection of binding interactions in vivo” (priority 1998, dated 2004).

Legend:
[1] = tested on: RBL-cells that express C1A-CaMKII and GFP-CaMKIIα; assay: In vivo protein-protein binding assay with inducible C1A translocation domain, evanescent wave excitation; format: cell-based, Rat; settings: PDBu 1 μM, n=3
Excerpt: FIG. 10. Measuring protein-protein binding interactions of cytosolic proteins using an evanescent wave excitation. (A) Schematic representation of the in vivo binding assay. Binding between Proteins X and Y can be measured by conjugating Protein X with GFP and Protein Y with an inducible plasma membrane targeting domain. […] The C1A-domain from PKCγ was used as an inducible translocation domain. […] Typical translocation traces are shown.
Cloning of GFP-Fusion Constructs and Electroporation. […]
Measuring Protein-Protein Binding Interactions with High Signal-to-Background by Evanescent Wave Excitation. Protein-protein binding interactions have been measured previously by using a dual protein fusion strategy in which a protein Y was conjugated with an inducible plasma membrane translocation domain and a protein X with a GFP-tag (FIG. 5A, ref. 40). By inducing plasma membrane translocation of the non-fluorescent protein Y, the increase in plasma membrane fluorescence from the fluorescent protein X becomes a measure for the fraction of protein X that is bound to protein Y (since it is carried along with protein Y to the plasma membrane). […]
Evanescent wave excitation was now used in combination with the same assay. […] RNA transfection was used for quantitative expression of the two constructs (Teruel, et al. (1999) J. Neuroscience Methods 93: 37-48). […]

[2] = tested on: cells expressing the plasma membrane localized GFP construct; assay: Control: fluorescence of cells expressing plasma membrane localized GFP; format: cell-based; settings: ionomycin and phorbol ester added together
Experimental: FIG. 6. Evanescent wave excitation of fluorescent cytosolic and membrane proteins in adherent cells. (A) Schematic view of the microscope setup (see Materials and Methods section for description). (B) Fluorescent images of RBL cells that express cytosolic GFP (left; representative of 6 experiments) or plasma membrane targeted GFP (right, n=3). A myristoylation/palmitoylation sequence was fused to the N-terminal end of GFP for membrane targeting.
Fluorescent images were recorded from RBL-cells that had similar levels of expressed cytosolic or plasma membrane localized GFP constructs. The targeting of GFP to the plasma membrane utilized a fusion of the 12 amino acid palmitoylation/myristoylation plasma membrane targeting sequence from Lyn to the N-terminus of GFP (Teruel, et al. (1999) J. Neuroscience Methods 93: 37-48). The fluorescence intensity of cells with expressed cytosolic GFP (FIG. 6B) was typically 3 to 10-fold lower than the intensity of cells with expressed plasma membrane targeted GFP (FIG. 6C).
Analysis of Receptor Triggered Translocation of PKCγ-GFP in Thin Cells. […] The changes in fluorescence intensity could be followed in a series of several hundred images. […] Similar receptor-triggered fluorescence intensity oscillations could be observed in RBL cells (FIG. 7D) and 3T3 fibroblasts (data not shown).

[3] = tested on: hippocampal astrocytes expressing PKCγ-GFP; assay: Plasma membrane translocation of PKCγ-GFP by evanescent wave excitation; format: cell-based; settings: glutamate 100 μM, ionomycin 2 μM
Experimental: FIG. 7. Plasma membrane translocation of PKCγ measured in hippocampal astrocytes by evanescent wave excitation. (A) Time series of fluorescent images of cultured hippocampal astrocytes expressing PKCγ-GFP stimulated with glutamate (100 μM; n=47). […] (B) The same experiment as in (A) but with calcium ionophore added (2 μM ionomycin; n=8). (Bars=10 μm in (A) and (B)). (C) Time course of PKCγ-GFP translocation measured as a fractional increase in fluorescence intensity and triggered by glutamate addition (100 μM, left) to a single astrocyte (left panel; n=47). (D) Similar periodic intensity changes in an RBL stably expressing PAF receptors following the addition of 100 nM PAF. Ionomycin was added at the end of each experiment (2 μM).
Cell Culturing. Rat basophilic leukemia 2H3 (RBL) cells were grown and plated as described by Oancea, et al. ((1997) J. Cell Biol. 140, 485-498) and Oancea, E. & Meyer, T. ((1998) Cell 95, 307-318). […]
Evanescent Wave Excitation and Fluorescence Microscopy (also termed Total Internal Reflection Fluorescence Microscopy or TIRFM). […] For glass coverslips, total internal reflection occurs for angles above 61° [θI,c=arcsin(n2/n1), calculated for a refractive index n1=1.52 for glass and n2=1.33 for water]. […] The space constant of the exponential decay I(z)=I(0)exp(−z/d) at a given angle can be calculated as described by Axelrod ((1981) J. Cell. Biol. 89, 141-145). […]

[4] = tested on: RBL cells expressing PKCγ-YFP; assay: E-SCAM measurement of plasma membrane translocation of PKCγ-YFP; format: cell-based, Rat; settings: ionomycin-induced PKCγ translocation in RBL cells; data not shown
Excerpt: FIG. 11. E-SCAM measurement of plasma membrane translocation events in more than a thousand cells. (A) Schematic view of the Evanescent wave Single Cell Array Macroscope (E-SCAM) in which the excitation light is directly coupled into the coverslip. (B) Low magnification images of RBL, cells expressing PKCγ-YFP before (left) and after stimulation with calcium ionophore (right). […] (Bar=1 mm). (C and D) Statistical analysis of receptor-triggered fluorescence intensity changes measured in RBL-cells expressing PKCγ-YFP after stimulation by cross-linking of their FcεRI receptors with the antigen DNP-BSA. (C) Typical time courses. (D) Histogram of the maximum amplitude of fluorescence intensity changes that was measured in each of more than 1000 cells visible in the field of view.
Construction of an Evanescent wave Single Cell Array Macroscope (E-SCAM). A wide-field microscope (macroscope) was designed in similar fashion to the higher magnification system described above. Two Rodenstock 100 mm Heligon lenses were mounted below the coverslip in opposite directions to obtain a combined objective and ocular with 1:1 magnification. The second lens projected the sample image onto a 5 MHz Micromax camera made commercially available from Roper Scientific of Trenton, N.J. This lens combination has high spatial and chromatic accuracy as well as a numerical aperture of NA˜0.3 (F/1.6). […]

Compound	plasma membrane fluorescence change, C1A-CaMKIIα and GFP-CaMKIIα [1]	change in fluorescence intensity of plasma membrane localized GFP (control) [2]	change in fluorescence intensity (PKCγ-GFP translocation) [3]	cell compliance of induced translocation [4] [%]
CCCC(=O)O[C@@H]1[C@@H](C)[C@@]2(O)[C@@H](C=C(CO)C[C@]3(O)C(=O)C(C)=C[C@@H]23)[C@@H]2C(C)(C)[C@]12OC(=O)CCC [PDBu]	marked increase in plasma membrane fluorescence	no significant change in fluorescence intensity		
N[C@@H](CCC(=O)O)C(=O)O [glutamate]			marked increase in fluorescence intensity	
C[C@H](CCC(=O)O)C[C@H](C)C[C@H](C)C(=O)/C=C(\O)[C@H](C)C[C@H](C)C/C=C/[C@@H](C)[C@@H](O)[C@@H](C)[C@@H](O)C[C@@H]1CC[C@@](C)([C@H]2CC[C@@](C)([C@@H](C)O)O2)O1 [ionomycin]		no significant change in fluorescence intensity		100
